Laboratory results: patent US12049483B2, “Selective and noncovalent inhibitors of oncogenic RAS mutants” (New York University, priority 2020, dated 2024)

Tests used:
[1] = target: KRAS(G12C) (Homo sapiens, UniProt P01116, G12C); experiment: BLI binding to KRAS(G12C); set-up: KRAS4B residues 1-174 containing G12C, G12V, G12D, G13D, Q61L, WT; His6 (N, cleaved yes); Avi-tag (N, cleaved yes); made in house; host or cells: E. coli BL21(DE3); conditions: nucleotide state GTPγS
Excerpt: (§1) Protein expression and purification. All proteins used for monobody development and binding assays, including RAS constructs (KRAS4B residues 1-174 containing G12C, G12V, G12D, G13D, Q61L, WT, NRAS(WT), and HRAS(WT)), Monobodies, and RAF-1 RBD (residues 51-131) were produced with an N-terminal tag containing His6, Avi-tag for biotinylation and a TEV protease recognition site using the pHBT vector. The proteins were produced in E. coli BL21(DE3). To produce biotinylated proteins, E. coli BL21(DE3) with the pBirA plasmid was used as the host and grown in the presence of 50 μM of biotin. Expressed proteins were purified using Ni-Sepharose columns (GE Healthcare) via gravitational flow, followed by dialysis in Tris buffered saline (TBS, 50 mM Tris-Cl pH7.5 containing 150 mM NaCl) for non-RAS proteins. TBS containing 20 mM MgCl2 and 0.5 mM DTT was used for RAS proteins. Samples were further purified using a Superdex 75 size exclusion column on AKTA Pure systems (GE Healthcare). HRAS(WT) and HRAS(G12C) (residues 1-166) used for crystallization was produced as a fusion protein with His6 and yeast SUMO at the N terminus using an in-house vector described previously. […]
(§2) Biolayer interferometry (BLI) analysis. […] BLI signals were analyzed using Octet Data Analysis software (Molecular Devices).

[2] = target: T1, KRAS(G12V) (Homo sapiens, UniProt P01116, G12V); experiment: BLI binding to KRAS(G12V); conditions: nucleotide state GTPγS
T1 construct: KRAS4B residues 1-174 containing G12C, G12V, G12D, G13D, Q61L, WT; His6 (N, cleaved yes); Avi-tag (N, cleaved yes); made in house; host or cells: E. coli BL21(DE3)
Excerpt: as §1, §2

Sequence: VSSVPTKLEVVAATPTSLLISWDAPAVTVFFYVITYGETGHGVGAFQAFKVPGSKSTATISGLKPGVDYTITVYARGYSKQGPYKPSPISINYRT [12VC1]
- koff [1]: 0.0027 s⁻¹
- koff [2]: 0.007 s⁻¹
